Data from US8377651B2, “Method for detecting Escherichia coli” (Systagenix Wound Management (US), Inc., priority 2003, dated 2013).
Primed or numbered codes have the meaning given here. No end group written: not given here. *: point of attachment. Dabcyl″ = CN(C)c1ccc(/N=N/c2ccc(C(=O)*)cc2)cc1; EDANS = O=S(=O)(O)c1cccc2c(NCCN*)cccc12; Dabcyl′ = not defined here

Tests used:
E. coli cells [1] = assay: Protease assay, labeled peptide substrate with bacterial culture (cells and media); type: cell-based, Escherichia coli; settings: for protease activity / cleavage of substrate (relative fluorescence): E. coli culture incl. cells and media, 20 mM tris pH 7.4, 150 mM NaCl, 37° C., ex 355 nm, em 485 nm, FIG. 1, 2
Method: (§1) The peptide substrates used here were labeled with the fluorescent probe edans (5((2-aminoethyl)amino)naphthalene-1-sulfonic acid) and the quencher dye molecule dabcyl ((4-(4-(dimethylamino)phenyl)azo)benzoic acid). The labeled peptides ecot1 (T1) and ecot2 (T2) sequences used are as follows:
(§2) The bacteria were grown in an incubator overnight at 37° C. in 5 mL BHT (Brain Heart Infusion) media. Each of the resulting cultures was split into two samples. One was used as a culture, and the other was spun down by centrifugation and the supernatant was collected. The assays were run in 20 mM tris buffer (pH 7.4) with 150 mM NaCl added. The reaction was carried out with 5 μL of culture or supernatant and 5 μL of peptide substrate (10 mg/mL in water) in 100 μL total volume at 37° C. The reaction was followed on a fluorimetric plate reader using an excitation wavelength of 355 nm and an emission wavelength of 485 nm.
(§3) The first set of experiments was performed by addition of the bacterial culture directly into the assay solution. The protease OmpT is a membrane bound protein and would not be expected to be found secreted into the media. The first assay to be run used the peptide ecot1(T1) as substrate.

[2] = tested on: secreted protease from E. coli; assay: Protease assay with bacterial culture supernatants; type: biochemical, Escherichia coli; settings: for protease activity with culture supernatant: E. coli culture supernatant
Method: as §2
(§4) To test whether the protease is membrane associated, as expected for E. coli OmpT, the protease assays were repeated with the supernatants obtained from each bacterial culture.

[3] = tested on: secreted protease from any of the other bacteria tested; assay: Protease assay with bacterial culture supernatants; type: biochemical
Method: as §2, §4

E. coli [4] = assay: Protease assay in reaction buffer with 5% fetal bovine serum; type: cell-based, Escherichia coli; settings: buffer plus 5% fetal bovine serum; FIG. 3
Method: as §2
The 12 peptide substrate was further tested for cross reactivity with the types of conditions and molecules that may be present in a wound environment. A fluid that may be present in a wound, at least initially, is serum. In order to test for reactivity with serum the reaction buffer was modified to by addition 5% fetal bovine serum and the protease assay was repeated, using the 12 peptide substrate.

E. coli cells [5] = assay: Protease assay in simulated wound fluid buffer (5% bovine serum albumin); type: cell-based, Escherichia coli; settings: tris-buffered saline plus 5% (by weight) bovine serum albumin, FIG. 4
Method: as §2
The protease assay was also tested in a simulated wound fluid buffer. The buffer was tris-buffered saline, as described above, to which 5% (by weight) bovine serum albumin was added. The protease assay was repeated, again using the 12 peptide substrate.

E. coli [6] = assay: Protease assay with modified (lysine-tagged) substrate and bacterial cultures; type: cell-based, Escherichia coli; settings: cultures of Pseudomonas, S. aureus, S. epidermidis, S. salivarius, S. pyogenes, Enterococcus, Serratia, 37° C., FIG. 5
Method: The protease assay, described herein for detection of E. colt was run with the modified version of T2, T3. Bacteria (Pseudomonas, E. coli, S. aureus, S. epidermidis, S. salivarius, S. pyogenes, Enterococcus, and Serratia) were grown in an incubator overnight at 37° C. in 5 mL BHI (Brain Heart Infusion) media. The assays were run in 20 mM tris buffer (pH 7.4) with 150 mM NaCl added. The reaction was carried out with 7 μL of culture including cells and media and […] (5 mg/mT, in water) in 100 μL total volume at 37° C. The reaction was followed on a fluorimetric plate reader using an excitation wavelength of 355 nm and an emission wavelength of 485 nm.

E. coli cultures = assay: Biosensor: his-tagged peptide linked to nickel binding resin exposed to cultures; type: cell-based, Escherichia coli; settings: E. coli cultures versus BHI media without bacteria
Method: Metal chelate (affinity binding) interactions can provide a stronger bond to biological molecules. A his-tag built into the peptide substrate, for example T4 can be used to allow linkage to a nickel binding resin. The resin is incubated with a suitable culture, for example, E. coli for 30 minutes at 37° C. After centrifugation the buffer is removed and the pelleted resin is imaged. The fluorescence produced by the peptide is then detected.

Pseudomonas = assay: Protease assay, labeled peptide substrate with bacterial culture (cells and media); type: cell-based; settings: Pseudomonas culture incl. cells and media; 20 mM tris pH 7.4, 150 mM NaCl, 37° C.; FIG. 1
Method: as §1, §2, §3

[7] = tested on: protease from Pseudomonas secreted into solution; assay: Protease assay with bacterial culture supernatants; type: biochemical
Method: as §2, §4

How did the “protease activity / cleavage of substrate (relative fluorescence)” value (E. coli cells [1]) turn out when Dabcyl - KVSRRRRRGGD - Edans [T2] was run?
The value was “reacted with this substrate”.

And the “selectivity of substrate among the bacteria tested” value (E. coli cells [1]; cultures of various bacteria incl. cells and media, FIG. 2)?
The value was “efficient and selective for E. coli”.

And the “protease activity with culture supernatant” value [2]?
The value was “did not show any reactivity”.

What about the “selectivity for membrane bound protease OmpT” value ([2]; conclusion from culture versus supernatant assays) of the same substance?
The value was “selective for the E. coli outer membrane protease OmpT”.

What about the “reactivity with secreted protease, culture supernatants” value [3] of the same substance?
Its value is “did not show any reactivity”.

And the “detection of E. coli in presence of serum (cleavage, relative fluorescence)” value (E. coli [4])?
Its value is “detection of the presence of E. coli in the E. coli sample occurred”.

What about the “protease reactivity in simulated wound fluid” value (E. coli cells [5]) of the same substance?
Its value is “not affected by the simulated wound fluid buffer”.

And the “selectivity and speed as probe in simulated wound fluid” value (E. coli cells [5]; various bacteria)?
Its value is “rapid and selective probe for the detection of E. coli cells”.

With “KKAS(E-edans)VSRRRRRGG(K-dabcyl) (chain 1 KKASE(EDANS); chain 2 VSRRRRRGGK(Dabcyl″); not fully specified; printed as KKAS(E-edans)VSRRRRRGG(K-dabcyl)) [T3]” as the substance, how does the “specificity of assay among bacteria (cleavage, relative fluorescence over time)” value (E. coli [6]) read?
The value was “specific for E. coli”.

CHHHAS(E-edans)VSRRRRRGG(K-dabcyl) [T4] was tested. Which “detection of E. coli by resin-bound peptide fluorescence” value (E. coli cultures) did it give?
The value was “E. coli was detected”.

“Edans - DSRPVRRRRRPRVSK - Dabcyl (Edans-DSRPVRRRRRPRVSK-{Dabcyl′}) [T1]” was tested. Which “protease activity / cleavage of substrate (relative fluorescence)” value (E. coli cells [1]) did it give?
Its value is “protease activity was observed”.

And the “protease activity / cleavage of substrate (relative fluorescence)” value (Pseudomonas)?
Its value is “protease activity was observed”.

And the “protease activity with culture supernatant” value [2]?
Its value is “not present in the supernatant”.

What about the “protease activity with culture supernatant” value [7] of the same substance?
The value was “still present”.
